Laboratory results from PMC7228089, “Odiparcil, a potential glycosaminoglycans clearance therapy in mucopolysaccharidosis VI—Evidence from in vitro and in vivo models” (PLoS ONE, 2020).
pEC50: −log10 of the molar value.

Key:
Arsb^- mice [1] = test: Urinary excretion of total sulphated GAG (Blyscan) in mice treated with odiparcil; type: in vivo
Protocol: (§1) MPS VI model nonsense mutation Arsb^m1J homozygous mice (referred to as Arsb^- throughout the manuscript) and WT littermates were obtained from internal breeding of stock mice derived from The Jackson Laboratory strain No: 005598 (C57BL/6J-Arsb^m1J/GrsrJ). Genotyping and Arsb^m1J mutation identification were performed according to the protocol provided by The Jackson Laboratory. Each study group contained mix of male and female: 6 animals in disease progression studies and between 8 and 12 animals in odiparcil treatment studies.
(§2) Housing conditions. The animals were housed in groups of 3–10 (for mice) or 2 (for rats) in polypropylene cages (floor area = 1032 cm^2) under standard conditions: room temperature (22 ± 2°C), hygrometry (55 ± 10%), light/dark cycle (12h/12h), air replacement (15–20 volumes/hour), water and food ad libitum. […]
Total sulphated GAG in cell culture media were determined colorimetrically by DMMB method (described in [31] adapted for cell culture media). Total sulphated GAG in snap frozen liver and kidney samples and urine were measured using Blyscan assay from Biocolor Company (UK) following manufacturer’s instructions. […] For GAG in tissues quantification, individual pieces (approximately 50 mg) were removed from the frozen samples (liver and kidney), weighed and digested in 1 mL papain solution prepared according to the Blyscan kit protocol. […]

[2] = test system: Primary skin fibroblasts from MPS VI patients GM00538 and GM02572; test: Intracellular chondroitin sulphate ([CS-56] immunofluorescence) in MPS VI patient skin fibroblasts; type: cell-based, human; conditions: 72 h
Protocol: Primary skin fibroblasts from MPS VI patients GM00538 and GM02572 were obtained from the NIGMS Human Genetic Cell Repository at the Coriell Institute for Medical Research. Cell culturing was done according to the conditions provided by the Coriell Institute. For evaluation of the effect of odiparcil, cells were seeded in 96 well imaging plates (Falcon Cat N 353219) and two types of treatment were evaluated: i) prophylactic conditions—cells were treated with odiparcil before reaching confluence, 24 hours after plating; and ii) curative conditions—cells were treated with odiparcil after reaching confluence (10 days culturing). Cells were treated by odiparcil added to the culture media. This was done by replacing the initial culture media by media containing 0.1% DMSO with or without odiparcil (at 0.01, 0.03, 0.1, 0.3, 1, 3 and 10 μM). For treatment, the cells were incubated for 72 hours at 37°C, 5% CO2. All experimental conditions were performed in triplicate, i.e., 3 wells/test condition.
After odiparcil treatment as described above, culture media were removed to be used for dimethylmethylene blue (DMMB) assay and the cells were fixed in PFA 4%. […]
For statistical analyses, commercial software (GraphPad Prism 5) was used. EC50 were calculated using the build in function Nonlinear fit for “log (inhibitor) vs. response—Variable slope (four parameters)”. […]

Arsb^- mice [3] = test: Granule accumulation in leukocytes (May-Grunwald-Giemsa blood smears); type: in vivo; conditions: early disease treatment, 6 months, high dose (4.5 g/kg diet)
Protocol: as §1
as §2, with “libitum. Mice were allowed to habituate for at least 5 days prior to experimentation. Mice were numbered by marking their tail using indelible markers.” for “libitum.”
Quantification of the accumulation of granules in leukocytes was done after May-Grunwald–Giemsa staining of blood smears and microscopic examination. […] Only blood smears from WT chow diet, Arsb^- chow diet and Arsb^- treated with high dose of odiparcil (4.5 g/kg diet) were analyzed. […]

Arsb^- mice [4] = test: Sulphated GAG accumulation in liver and kidney (Alcian Blue staining, Blyscan); type: in vivo; conditions: for Liver sulphated GAG accumulation / Kidney sulphated GAG accumulation: Arsb^- mice; for Liver sulphated GAG accumulation: 6 months of treatment; for Kidney sulphated GAG accumulation: Alcian Blue
Protocol: as §1
Housing conditions. The animals were housed in groups of 3–10 (for mice) or 2 (for rats) in polypropylene cages (floor area = 1032 cm^2) under standard conditions: room temperature (22 ± 2°C), hygrometry (55 ± 10%), light/dark cycle (12h/12h), air replacement (15–20 volumes/hour), water and food ad libitum. Mice were allowed to habituate for at least 5 days prior to experimentation. Mice were numbered by marking their tail using indelible markers. For the early disease model (treatment starting in juvenile, 4 weeks old mice), odiparcil administration in the weeks 1 to 6 was done per gavage with odiparcil in Methylcellulose 400 cps 1% / Poloxamer 188 0.1% / Water, freshly prepared every week. Later on, administration was per chow diet with odiparcil mixed before diet granulation. For advanced disease treatment (treatment starting in adult, 3 months old mice), administration was per diet from the beginning of the study. WT and Arsb^- animals were randomized into groups: control and two doses of odiparcil: 1.5 g odiparcil per kg of diet and 4.5 g odiparcil per kg of diet. For urine collection, animals were placed for 24 hours in standard metabolism cages (2 or 3 animals per cage). At the end of the studies, animals were anesthetized (O2 / isoflurane), blood for smears was collected from ocular sinus and after euthanasia samples from liver and kidney (snap frozen for total GAG analysis by Blyscan method or fixed for histology, see below) and from trachea and knee from the left hind leg were collected.
Total sulphated GAG in cell culture media were determined colorimetrically by DMMB method (described in [31] adapted for cell culture media). Total sulphated GAG in snap frozen liver and kidney samples and urine were measured using Blyscan assay from Biocolor Company (UK) following manufacturer’s instructions. Urine samples were processed directly according to the kit manual. For GAG in tissues quantification, individual pieces (approximately 50 mg) were removed from the frozen samples (liver and kidney), weighed and digested in 1 mL papain solution prepared according to the Blyscan kit protocol. After the extraction, 20 μL from each reaction were used for sulphated GAG determination following the Blyscan kit protocol. The obtained values for sulphated GAG were adjusted to the volume of papain reaction and were normalized to the weight of the tissue used or, in the case of urine samples, to creatinine levels.
GAG tissue accumulation in liver and kidney sections was estimated based on Alcian Blue staining performed at low pH (pH 1), at which the dye stained predominantly sulphated GAG. Two slides at different levels per tissue block were used. Staining with 1% Alcian Blue in hydrochloric acid was performed on automated Leica Autostainer. […] Then for each proof image, an RGB index was calculated that was the mean of Red + Green + Blue intensities of all non-black pixels. […]

## Cc1cc(=O)oc2cc(O[C@@H]3SC[C@@H](O)[C@H](O)[C@H]3O)ccc12 [Odiparcil, 4-methyl-7-(5-thio-β-D-xylopyranosyloxy)-2 H-chromen-2-one]
Arsb^- mice [1]; Arsb^- mice, two weeks after discontinuation
  Urinary GAG after discontinuation of the treatment: no elevated GAG were detected on top of the basal level
Arsb^- mice [1]; wild type and Arsb^- mice, oral 1.5 or 4.5 g/kg diet, after 3 and 6 months, early and advanced disease protocols
  Total sulphated GAG in urine: elevation of total GAG in urine
[2]; 10 μM odiparcil
  Effect on intracellular pool of CS: almost completely eliminated intracellular pool of CS
[2]; Homo sapiens, Skin fibroblast, growing and confluent cell culture conditions, read-out: EC50 for the reduction of intracellular CS levels
  pEC50: ~6.00
Arsb^- mice [3]
  Leukocytes with high granules accumulation: reduced number of leukocytes with high granules accumulation
Arsb^- mice [4]; early disease model, 1.5 and 4.5 g/kg diet
  Liver sulphated GAG accumulation: significantly reduced liver GAG at both doses
Arsb^- mice [4]; early disease model, 6 months, effect not significant
  Kidney sulphated GAG accumulation: reduced kidney GAG
Arsb^- mice [4]; established disease model, highest dose (4.5 g/kg diet)
  Liver sulphated GAG accumulation: significantly reduced liver GAG
Arsb^- mice [4]; established disease model, 6 months
  Kidney sulphated GAG accumulation: significant only in the latter model
Arsb^- mice [4]; wild type mice, two doses of odiparcil, 6 months
  Liver and kidney GAG levels in wild type animals: no significant effects on GAG levels
